The test system of one series is mice. Put plainly: Toxicity: death on intraperitoneal administration to mice for 5 weeks. In kind it is in vivo. The note with it: 10 mg/kg per day intraperitoneally for 5 weeks. The source says: Further, the compounds of the present invention are low in toxicity, and these compounds are expected to be high in safety.
The test system of series [1] is TNF-α production by LPS stimulated macrophages. As to the kind of experiment: TNF-α production inhibitory activity by LPS stimulated macrophages. To be noted: Macrophage, BALB/c mouse peritoneal macrophages, cultured for 8 hours, ELISA. The class given is cell-based. The protocol:
The following assay was used to evaluate the ability of the compound of the present invention to suppress TNF-α production by LPS stimulated macrophages according to Immunopharmacol. 29, 121-127 (1995).
1) 6 to 10 week old female BALB/c mice were used, 2 ml portions of thioglycolate were intraperitoneally administered, and the abdominal cavities were washed by 10 ml of PBS after 4 days, whereby 1 to 2×10^7 peritoneal cells were obtained per mouse. These were suspended in a hemocyte solution (0.75% ammonium chloride, 17 mM tris-hydrochlorate buffer, pH7.2), centrifuged, then resuspended in an RPMI1640 medium including 10% fetal calf serum and seeded in a 96-well cell culture plate at a density of 1×10^5 cells/50 μl/well. Since these cells adhered strongly to the tissue culture plate and were positive in nonspecific esterase staining, they were used for the test as mouse peritoneal macrophages. Mouse peritoneal macrophages were precultured overnight at 37° C. in […] for the experiment.
2) E. Coli (serum type 055:B5) derived LPS was dissolved in PBS in a concentration of 1 mg/ml, then sterilized by filtration. The test compound was dissolved in DMSO to make a 1000-fold concentration solution of the final concentration of use. 10 μl of the above LPS stock solution (final concentration 10 μg/ml) and 1 μl of the tested substance stock solution were added and mixed in 0.5 ml of RPMI1640 medium containing 10% fetal calf serum. This was added to the above cells at 50 μl/well and cultured for 8 hours. The cultured supernatant was recovered from each well and the TNF-α concentration was measured by the ELISA method (Cytoscreen® Immunoassay Kit Mouse TNF-α, BioSourse International).
The comparative example was the compound described in WO-A-97-04775, Example 1, mentioned above.
A general note: An ELISA detects its analyte on a solid surface through an enzyme-linked reagent.

Series [2] concerns the target type IV phosphodiesterase. Put plainly: Type IV phosphodiesterase inhibiting activity. The note with it: U937 type IV phosphodiesterase fraction, 0.28 μM cAMP, pH 7.5, 30° C., 30 minutes; read-out: PDEIV-IC50. In kind it is biochemical, human. In short, it runs like this:
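PDE4 fraction from U937 cell lysate, separated on DEAE Sepharose, incubated with compound, 0.4 μCi 3H-cAMP (0.28 μM cAMP) and 5'-nucleotidase in Tris-HCl pH 7.5 with 1 mM MgCl2 for 30 min at 30 °C. Product radioactivity counted after QAE-Sephadex removal of substrate.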

Each structure is given as a SMILES string.

By IC50 is commonly meant the point on the concentration scale where inhibition reaches its midpoint.

For `O=C(Nc1ccncc1)c1cn(N2CCOCC2)c2ncccc2c1=O` [Example 106, N-(4-pyridyl)-1-(1-morpholino)-1,4-dihydro[1,8]naphthylidin-4-one-3-carboxamide], the death result with mice was “no death”. Further, the figures for the IC50 in series [1] and in series [2] were 90 nM and 140 nM, respectively.

Take `COC(=O)N1CCC(n2cc(C(=O)Nc3c(Cl)cncc3Cl)c(=O)c3cccnc32)CC1` [Example 26, N-(3,5-dichloropyridin-4-yl)-1-(1-methoxycarbonylpiperidin-4-yl)-1,4-dihydro[1,8]naphthylidin-4-one-3-carboxamide]: the death entry in the series on mice is listed as “no death”. The figures for the IC50 in series [1] and in series [2] were 0.2 nM and 0.9 nM, respectively.

Consider `COC(=O)N1CC(n2cc(C(=O)Nc3c(Cl)cncc3Cl)c(=O)c3cccnc32)C1` [Example 34, N-(3,5-dichloropyridin-4-yl)-1-(1-methoxycarbonylazetidin-3-yl)-1,4-dihydro[1,8]naphthylidin-4-one-3-carboxamide], for which, in the series with mice, the death result is “no death”. Besides, the IC50 in series [1] amounted to 80 nM; in series [2], 24 nM.

In the case of `CO[C@H]1CC[C@H](n2cc(C(=O)Nc3c(Cl)cncc3Cl)c(=O)c3cccnc32)CC1` [Example 127, N-(3,5-dichloropyridin-4-yl)-1-(trans-4-methoxycyclohexyl)-1,4-dihydro[1,8]naphthylidin-4-one-3-carboxamide], the death entry with mice is on record as “no death”. Besides, the IC50 in series [1] was determined as 15 nM; in series [2] it was 7.2 nM.

As for `O=C(Nc1c(Cl)cncc1Cl)c1cn([C@H]2CC[C@H](O)CC2)c2ncccc2c1=O` [Example 117, N-(3,5-dichloropyridin-4-yl)-1-(trans-4-hydroxycyclohexyl)-1,4-dihydro[1,8]naphthylidin-4-one-3-carboxamide], in the series with mice, the death result is “no death”. For the same compound, the figures for the IC50 in series [1] and in series [2] were 2 nM and 3.7 nM, respectively.

For the compound `O=C1CCC(n2cc(C(=O)Nc3c(Cl)cncc3Cl)c(=O)c3cccnc32)CC1` [Example 120, N-(3,5-dichloropyridin-4-yl)-1-(4-oxocyclohexyl)-1,4-dihydro[1,8]naphthylidin-4-one-3-carboxamide], the death result in the series on mice is on record as “no death”. Also, the IC50 in series [1] stood at 0.7 nM; in series [2] it was 2.7 nM.

As to `O=C(Nc1c(Cl)cncc1Cl)c1cn(C2CCN(C(=O)OCc3ccccc3)CC2)c2ncccc2c1=O` [Example 25, N-(3,5-dichloropyridin-4-yl)-1-(1-benzyloxycarbonylpiperidin-4-yl)-1,4-dihydro[1,8]naphthylidin-4-one-3-carboxamide], the death entry with mice was “no death”. For the same compound, the IC50 was 0.4 nM in series [1] and 0.9 nM in series [2].

`COC(=O)N1CC[C@H](n2cc(C(=O)Nc3c(Cl)cncc3Cl)c(=O)c3cccnc32)C1` [Example 11, (S)-N-(3,5-dichloropyridin-4-yl)-1-(1-methoxycarbonylpyrrolidin-3-yl)-1,4-dihydro[1,8]naphthyridin-4-one-3-carboxamide]: the death entry in the series on mice is listed as “no death”. The results for the IC50 in series [1] and in series [2] were 4 nM and 1.7 nM, respectively.

Consider `COC(=O)N1CCN(n2cc(C(=O)Nc3c(Cl)cncc3Cl)c(=O)c3cccnc32)CC1` [Example 56, N-(3,5-dichloropyridin-4-yl)-1-(4-methoxycarbonylpiperazin-1-yl)-1,4-dihydro[1,8]naphthylidin-4-one-3-carboxamide], for which, in the series on mice, the death result is “no death”. The values for the IC50 in series [1] and in series [2] were 15 nM and 1.6 nM, respectively.

The values are drawn from US6331548A, “1-cycloalkyl-1,8-naphthyridin-4-one derivative as type IV phosphodiesterase inhibitor” (Suntory Limited, priority 1998, dated 2001).
